Laboratory results as given in paper PMC12064818, “A general assay platform to study protein pharmacology using ligand-dependent structural dynamics” (Nature Communications, 2025).

Target: T1, Nano luciferase (NLuc) (Oplophorus gracilirostris, UniProt Q9GV45, A31E/A60N/A81I/F95D/I117V/K70R/L54V/L99Q/M102K/N193R/P142E/Q151K/Q38R/Q45L/V71I/Y165I)
T1 construct: His tag (inferred from IMAC purification); made in house; host or cells: E. coli
Test: Thermal shift profiles (Thermofluor assay), NLuc
Type: binding
Design: unit of the concentration uncertain
Conditions: compound 100 (unit uncertain); for Thermofluor NLuc, ATP: ATP (2 mM)
Method: Thermal stabilization of proteins in the presence of the ligands were determined using Thermofluor technique. MicroAmp optical 384-well plates (Applied Biosystems by Life Technologies), ViiA 7 real-time PCR instrument (Applied Biosystems by Life Technologies) and SYPRO Orange (Life Technologies) were used to test the samples. […]. Proteins were added to the 384-well plate first followed by the compounds. Samples were incubated for 10 mins at room temperature and protected from light. SYPRO Orange dye was diluted to 50x from 5000x stock in a PBS buffer, and 4 µL dye was added to the each well using a multi-channel pipette. The plate was sealed with a MicroAmp optical adhesive film, centrifuged at 1500 RPM for 2 min, and then loaded onto the ViiA 7 real–time PCR instrument for fluorescence intensity measurements upon heating the sample from 25 to 95 °C at 1 °C/min increments. Data was exported to excel, fluorescence intensity data and its first derivative were normalized and plotted using GraphPad Prism to determine Tm. See Supplementary Table 3 for additional details.
Supplementary Figure 6. Comparison of SDR and Thermofluor analysis of […]
Temperature °C Temperature °C […]
Supplementary Table 3. Protocol for Thermofluor assay
Supplementary Table 3: Protocol for Therm ofluor assay
Sequence Param eter Value Description […]
3 Incubation 10 m ins Room tem perature, protected from light
4 Dye 10X Sypro Orange dye in PBS added to the sam ple
5 Centrifugation 2 m in Centrifuge for 2 m in at 1500 RPM at RT
6 Read ViiA7 Read the therm al unfolding of the protein with ViiA7 real-tim e PCR system
4 Prepare 50X dye in PBS: 1 μL Sypro Orange 5000X (Life Technologies), 99 μL ddH2O. Add 4 μL to each well Read the m elting tem perature from 25 to 95 °C using ViiA 7 real tim e PCR instrum ent by following the below instructions Perform therm al denaturation in 384-well assay plate
(i) Place the assay plate into the Applied Biosystem s ViiA7 real-tim e PCR instrum ent and open the ViiA7 RUO software.
Under Experim ental Properties, select the following param eters: Set up: […] (20 μl), Experim ent type: MELT CURVE, Reagents used to detect target sequence: OTHER, Ram p Speed: […]
(ii) Select the Define tab on the left, then select the following param eters: Target nam e: TARGET 1, Reporter: ROX, 6 Quencher: NONE, Passive Reference: NONE
(iii) Select the Assign tab on the left, then perform the following actions: Highlight all 384 wells in the assay plate and check the box next to ‘Target 1’ on the top left of the plate layout. Note: check the ‘Sam ple’ box on the lower left.
(iv) Select the Run Method tab on the left, then m ake the following changes to the default Melt Curve profile: Delete Step 2 of the default cycle, change run m ethod to “Step and Hold” with a 1:00 tim e, set the following tem peratures: an initial 2:00 hold at 25 °C (4 °C), ram ping up in increm ents of 1 ° C to a final tem perature of 95 °C (with a 2:00 hold), click on all three cam eras to activate fluorescence detection throughout the experim ent, and Select total volum e per well of 20 μl
(v) Click on the RUN tab to the left to initiate therm al denaturation.

T1 sequence (Q9GV45 other isoform, or with tags, fused parts or gaps with the stated changes): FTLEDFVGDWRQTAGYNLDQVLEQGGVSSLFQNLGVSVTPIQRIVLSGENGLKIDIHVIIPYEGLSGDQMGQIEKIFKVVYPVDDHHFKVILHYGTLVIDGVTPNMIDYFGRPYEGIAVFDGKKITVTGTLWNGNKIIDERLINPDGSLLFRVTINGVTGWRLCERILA

In the case of `COc1ccc(NC(=O)C2CCN(C(=O)c3ncn4c3COC(c3ccccc3)C4)CC2)cc1Cl` (stereo not drawn) [NCGC 00449919], the “Thermofluor NLuc, No ATP” value (20.000 °C) is reported as 1, the “Thermofluor NLuc, ATP” value (20.000 °C) is reported as 0.908 and the “Thermofluor NLuc, No ATP” value (20.993 °C) is reported as 0.737. For the same compound, the “Thermofluor NLuc, ATP” value (20.993 °C) was 0.958, the “Thermofluor NLuc, No ATP” value (21.987 °C) was 0.665 and the “Thermofluor NLuc, ATP” value (21.987 °C) was 0.992. For the same compound, the “Thermofluor NLuc, No ATP” value (22.980 °C) was 0.636, the “Thermofluor NLuc, ATP” value (22.980 °C) was 1 and the “Thermofluor NLuc, No ATP” value (23.974 °C) was 0.59. For the same compound, the “Thermofluor NLuc, ATP” value (23.974 °C) was 0.981, the “Thermofluor NLuc, No ATP” value (24.967 °C) was 0.577 and the “Thermofluor NLuc, ATP” value (24.967 °C) was 0.945. The “Thermofluor NLuc, No ATP” value (25.960 °C) was 0.551, the “Thermofluor NLuc, ATP” value (25.960 °C) was 0.901 and the “Thermofluor NLuc, No ATP” value (26.954 °C) was 0.532. The “Thermofluor NLuc, ATP” value (26.954 °C) was 0.858, the “Thermofluor NLuc, No ATP” value (27.947 °C) was 0.492 and the “Thermofluor NLuc, ATP” value (27.947 °C) was 0.821. For the same compound, the “Thermofluor NLuc, No ATP” value (28.940 °C) was 0.484, the “Thermofluor NLuc, ATP” value (28.940 °C) was 0.79 and the “Thermofluor NLuc, No ATP” value (29.934 °C) was 0.475. The “Thermofluor NLuc, ATP” value (29.934 °C) was 0.766, the “Thermofluor NLuc, No ATP” value (30.927 °C) was 0.424 and the “Thermofluor NLuc, ATP” value (30.927 °C) was 0.748. The “Thermofluor NLuc, No ATP” value (31.921 °C) was 0.447, the “Thermofluor NLuc, ATP” value (31.921 °C) was 0.735 and the “Thermofluor NLuc, No ATP” value (32.914 °C) was 0.416. For the same compound, the “Thermofluor NLuc, ATP” value (32.914 °C) was 0.726, the “Thermofluor NLuc, No ATP” value (33.907 °C) was 0.402 and the “Thermofluor NLuc, ATP” value (33.907 °C) was 0.72. For the same compound, the “Thermofluor NLuc, No ATP” value (34.901 °C) was 0.393, the “Thermofluor NLuc, ATP” value (34.901 °C) was 0.716 and the “Thermofluor NLuc, No ATP” value (35.894 °C) was 0.367. For the same compound, the “Thermofluor NLuc, ATP” value (35.894 °C) was 0.71, the “Thermofluor NLuc, No ATP” value (36.887 °C) was 0.355 and the “Thermofluor NLuc, ATP” value (36.887 °C) was 0.703. The “Thermofluor NLuc, No ATP” value (37.881 °C) was 0.332, the “Thermofluor NLuc, ATP” value (37.881 °C) was 0.693 and the “Thermofluor NLuc, No ATP” value (38.874 °C) was 0.332. The “Thermofluor NLuc, ATP” value (38.874 °C) was 0.683, the “Thermofluor NLuc, No ATP” value (39.868 °C) was 0.308 and the “Thermofluor NLuc, ATP” value (39.868 °C) was 0.672. The “Thermofluor NLuc, No ATP” value (40.861 °C) was 0.311, the “Thermofluor NLuc, ATP” value (40.861 °C) was 0.661 and the “Thermofluor NLuc, No ATP” value (41.854 °C) was 0.286. For the same compound, the “Thermofluor NLuc, ATP” value (41.854 °C) was 0.65, the “Thermofluor NLuc, No ATP” value (42.848 °C) was 0.281 and the “Thermofluor NLuc, ATP” value (42.848 °C) was 0.638. For the same compound, the “Thermofluor NLuc, No ATP” value (43.841 °C) was 0.279, the “Thermofluor NLuc, ATP” value (43.841 °C) was 0.624 and the “Thermofluor NLuc, No ATP” value (44.835 °C) was 0.247. For the same compound, the “Thermofluor NLuc, ATP” value (44.835 °C) was 0.61, the “Thermofluor NLuc, No ATP” value (45.828 °C) was 0.259 and the “Thermofluor NLuc, ATP” value (45.828 °C) was 0.594. The “Thermofluor NLuc, No ATP” value (46.821 °C) was 0.247, the “Thermofluor NLuc, ATP” value (46.821 °C) was 0.579 and the “Thermofluor NLuc, No ATP” value (47.815 °C) was 0.245. For the same compound, the “Thermofluor NLuc, ATP” value (47.815 °C) was 0.563, the “Thermofluor NLuc, No ATP” value (48.808 °C) was 0.238 and the “Thermofluor NLuc, ATP” value (48.808 °C) was 0.547. For the same compound, the “Thermofluor NLuc, No ATP” value (50.795 °C) was 0.24, the “Thermofluor NLuc, ATP” value (50.795 °C) was 0.504 and the “Thermofluor NLuc, No ATP” value (51.788 °C) was 0.229. For the same compound, the “Thermofluor NLuc, ATP” value (51.788 °C) was 0.47, the “Thermofluor NLuc, No ATP” value (52.782 °C) was 0.227 and the “Thermofluor NLuc, ATP” value (52.782 °C) was 0.422. The “Thermofluor NLuc, No ATP” value (53.775 °C) was 0.227, the “Thermofluor NLuc, ATP” value (53.775 °C) was 0.36 and the “Thermofluor NLuc, No ATP” value (54.768 °C) was 0.248. For the same compound, the “Thermofluor NLuc, ATP” value (54.768 °C) was 0.285, the “Thermofluor NLuc, No ATP” value (55.762 °C) was 0.239 and the “Thermofluor NLuc, ATP” value (55.762 °C) was 0.202. For the same compound, the “Thermofluor NLuc, No ATP” value (56.755 °C) was 0.264, the “Thermofluor NLuc, ATP” value (56.755 °C) was 0.122 and the “Thermofluor NLuc, No ATP” value (57.748 °C) was 0.317. The “Thermofluor NLuc, ATP” value (57.748 °C) was 0.055, the “Thermofluor NLuc, No ATP” value (58.742 °C) was 0.38 and the “Thermofluor NLuc, ATP” value (58.742 °C) was 0.012. For the same compound, the “Thermofluor NLuc, No ATP” value (59.735 °C) was 0.412, the “Thermofluor NLuc, ATP” value (59.735 °C) was 0 and the “Thermofluor NLuc, No ATP” value (60.729 °C) was 0.472. For the same compound, the “Thermofluor NLuc, ATP” value (60.729 °C) was 0.021, the “Thermofluor NLuc, No ATP” value (61.722 °C) was 0.524 and the “Thermofluor NLuc, ATP” value (61.722 °C) was 0.072. For the same compound, the “Thermofluor NLuc, No ATP” value (62.715 °C) was 0.52, the “Thermofluor NLuc, ATP” value (62.715 °C) was 0.145 and the “Thermofluor NLuc, No ATP” value (63.709 °C) was 0.568. The “Thermofluor NLuc, ATP” value (63.709 °C) was 0.233, the “Thermofluor NLuc, No ATP” value (65.695 °C) was 0.566 and the “Thermofluor NLuc, ATP” value (65.695 °C) was 0.416. For the same compound, the “Thermofluor NLuc, No ATP” value (66.689 °C) was 0.551, the “Thermofluor NLuc, ATP” value (66.689 °C) was 0.499 and the “Thermofluor NLuc, No ATP” value (68.676 °C) was 0.541. For the same compound, the “Thermofluor NLuc, ATP” value (68.676 °C) was 0.632, the “Thermofluor NLuc, No ATP” value (69.669 °C) was 0.515 and the “Thermofluor NLuc, ATP” value (69.669 °C) was 0.682. For the same compound, the “Thermofluor NLuc, No ATP” value (70.662 °C) was 0.497, the “Thermofluor NLuc, ATP” value (70.662 °C) was 0.723 and the “Thermofluor NLuc, No ATP” value (71.656 °C) was 0.488. For the same compound, the “Thermofluor NLuc, ATP” value (71.656 °C) was 0.755, the “Thermofluor NLuc, No ATP” value (72.649 °C) was 0.477 and the “Thermofluor NLuc, ATP” value (72.649 °C) was 0.781. The “Thermofluor NLuc, No ATP” value (73.643 °C) was 0.428, the “Thermofluor NLuc, ATP” value (73.643 °C) was 0.8 and the “Thermofluor NLuc, No ATP” value (74.636 °C) was 0.405. For the same compound, the “Thermofluor NLuc, ATP” value (74.636 °C) was 0.812, the “Thermofluor NLuc, No ATP” value (75.629 °C) was 0.392 and the “Thermofluor NLuc, ATP” value (75.629 °C) was 0.819.
